Laboratory results reported in ChEMBL document CHEMBL4334464, “From Phenylthiazoles to Phenylpyrazoles: Broadening the Antibacterial Spectrum toward Carbapenem-Resistant Bacteria” (J Med Chem, 2019).
In brackets after ≈: the same amount, converted by molar mass. Activity calls are given as the source filed them. The rule behind the calls is not given here.

test system: Escherichia coli; assay: Ratio of MBC to MIC for Escherichia coli ATCC 1411 clinical isolates; assay type: functional; settings: not given

SMILES	Ratio
C/C(=N\NC(=N)N)c1cnn(-c2ccc(C#CC3CCCCC3)cc2)c1C	>=1

test system: Pseudomonas aeruginosa; assay: Antibacterial activity against Pseudomonas aeruginosa ATCC 15442 clinical isolates after 18 to 20 hrs in aerobic condition by CLSI-based broth microdilution assay; assay type: functional; settings: not given

SMILES	MIC
C/C(=N\NC(=N)N)c1cnn(-c2ccc(C#CC3CCCCC3)cc2)c1C	32 µg/mL (≈ 88.3 µM)

test system: Escherichia coli; assay: Ratio of MBC to MIC for Escherichia coli BW25113 clinical isolates; assay type: functional; settings: not given

SMILES	Ratio
C/C(=N\NC(=N)N)c1cnn(-c2ccc(C#CC3CCCCC3)cc2)c1C	>=1

test system: Pseudomonas aeruginosa; assay: Antibacterial activity against carbapenem-resistant Pseudomonas aeruginosa ATCC 1744 clinical isolates after 18 to 20 hrs in aerobic condition by CLSI-based broth microdilution assay; assay type: functional; settings: not given

SMILES	MIC
C/C(=N\NC(=N)N)c1cnn(-c2ccc(C#CC3CCCCC3)cc2)c1C	32 µg/mL (≈ 88.3 µM)

test system: Streptococcus pneumoniae; assay: Ratio of MBC to MIC for […] Streptococcus pneumoniae ATCC 700677 clinical isolates; assay type: functional; settings: not given

SMILES	Ratio
C/C(=N\NC(=N)N)c1cnn(-c2ccc(C#CC3CCCCC3)cc2)c1C	<3

test system: Escherichia coli; assay: Antimicrobial activity against Escherichia coli JW55031 harboring deltatolC mutant after 18 to 20 hrs in aerobic condition by CLSI protocol based broth microdilution assay; assay type: functional; settings: not given

SMILES	MIC
C/C(=N\NC(=N)N)c1cnn(-c2ccc(C#CC3CCCCC3)cc2)c1C	2 µg/mL (≈ 5.52 µM)

test system: Listeria monocytogenes; assay: Ratio of MBC to MIC for Listeria monocytogenes ATCC 19111 clinical isolates; assay type: functional; settings: not given

SMILES	Ratio
C/C(=N\NC(=N)N)c1cnn(-c2ccc(C#CC3CCCCC3)cc2)c1C	<3

test system: Enterococcus faecalis; assay: Ratio of MBC to MIC for vancomycin-resistant Enterococcus faecalis ATCC 51299 clinical isolates; assay type: functional; settings: not given

SMILES	Ratio
C/C(=N\NC(=N)N)c1cnn(-c2ccc(C#CC3CCCCC3)cc2)c1C	<3

test system: Streptococcus pneumoniae; assay: Antibacterial activity against cephalosporin-resistant Streptococcus pneumoniae ATCC 51916 clinical isolates after 18 to 20 hrs by CLSI-based broth microdilution assay; assay type: functional; settings: not given

SMILES	MIC
C/C(=N\NC(=N)N)c1cnn(-c2ccc(C#CC3CCCCC3)cc2)c1C	2 µg/mL (≈ 5.52 µM)

test system: Clostridioides difficile; assay: Ratio of MBC to MIC for Clostridium difficile ATCC BAA 1870; assay type: functional; settings: not given

SMILES	Ratio
C/C(=N\NC(=N)N)c1cnn(-c2ccc(C#CC3CCCCC3)cc2)c1C	<3

test system: Staphylococcus aureus; assay: Antibacterial activity against methicillin-resistant Staphylococcus aureus NRS384-USA300 clinical isolates after 18 to 20 hrs in aerobic condition by CLSI protocol based broth microdilution assay; assay type: functional; settings: not given

SMILES	MIC
C/C(=N\NC(=N)N)c1cnn(-c2ccc(C#CC3CCCCC3)cc2)c1C	2 µg/mL (≈ 5.52 µM)

test system: Acinetobacter baumannii; assay: Antibacterial activity against Acinetobacter baumannii NR 17786 clinical isolates after 18 to 20 hrs in aerobic condition by CLSI-based broth microdilution assay; assay type: functional; settings: not given

SMILES	MIC
C/C(=N\NC(=N)N)c1cnn(-c2ccc(C#CC3CCCCC3)cc2)c1C	8 µg/mL (≈ 22.1 µM)

test system: Staphylococcus aureus; assay: Antibiofilm activity against methicillin-resistant Staphylococcus aureus NRS384-USA300 clinical isolates assessed as inhibition of biofilm formation at 0.5 times MIC incubated for 24 hrs by crystal violet staining based spectrophotometric method relative to control; assay type: functional; settings: not given

SMILES	inhibition (INH)
C/C(=N\NC(=N)N)c1cnn(-c2ccc(C#CC3CCCCC3)cc2)c1C	22%

molecular target: T1, Ditrans,polycis-undecaprenyl-diphosphate synthase ((2E,6E)-farnesyl-diphosphate specific) (Escherichia coli (strain K12)) (UniProt P60472); assay: Inhibition of Escherichia coli UPPS using FPP/IPP as substrate preincubated for 30 mins followed by substrates addition and measured after 30 mins by malachite green reagent based assay; settings: not given
T1 sequence (whole entry): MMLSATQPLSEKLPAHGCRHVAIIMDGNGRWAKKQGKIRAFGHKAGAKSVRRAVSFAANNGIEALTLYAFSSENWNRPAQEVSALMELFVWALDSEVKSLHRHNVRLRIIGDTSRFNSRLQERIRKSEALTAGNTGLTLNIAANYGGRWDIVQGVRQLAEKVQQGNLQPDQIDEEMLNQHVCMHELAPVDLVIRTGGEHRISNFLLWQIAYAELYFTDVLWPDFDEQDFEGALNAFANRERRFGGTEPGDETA

SMILES	inhibition
C/C(=N\NC(=N)N)c1cnn(-c2ccc(C#CC3CCCCC3)cc2)c1C	inactive

test system: Escherichia coli; assay: microbe, parasite or virus in culture; settings: ATCC 1411
Description: Antibacterial activity against Escherichia coli ATCC 1411 clinical isolates after 18 to 20 hrs in aerobic condition by CLSI-based broth microdilution assay

SMILES	MIC
C/C(=N\NC(=N)N)c1cnn(-c2ccc(C#CC3CCCCC3)cc2)c1C	8 µg/mL (≈ 22.1 µM)

test system: Pseudomonas aeruginosa; assay: Ratio of MBC to MIC for Pseudomonas aeruginosa ATCC 9027 clinical isolates; assay type: functional; settings: not given

SMILES	Ratio
C/C(=N\NC(=N)N)c1cnn(-c2ccc(C#CC3CCCCC3)cc2)c1C	>=1

test system: Pseudomonas aeruginosa; assay: microbe, parasite or virus in culture; settings: ATCC 25619
Description: Antibacterial activity against Pseudomonas aeruginosa ATCC 25619 clinical isolates after 18 to 20 hrs in aerobic condition by CLSI-based broth microdilution assay

SMILES	MIC
C/C(=N\NC(=N)N)c1cnn(-c2ccc(C#CC3CCCCC3)cc2)c1C	64 µg/mL (≈ 177 µM)

test system: Clostridioides difficile; assay: Antibacterial activity against Clostridium difficile ATCC BAA 1870 incubated for 48 hrs in anaerobic condition by CLSI-based broth microdilution assay; assay type: functional; settings: ATCC BAA 1870, 48 h

SMILES	MIC
C/C(=N\NC(=N)N)c1cnn(-c2ccc(C#CC3CCCCC3)cc2)c1C	4 µg/mL (≈ 11 µM)

test system: Klebsiella pneumoniae; assay: Antibacterial activity against carbapenem-resistant Klebsiella pneumoniae ATCC BAA-1705 clinical isolates after 18 to 20 hrs in aerobic condition by CLSI-based broth microdilution assay; assay type: functional; settings: not given

SMILES	MIC
C/C(=N\NC(=N)N)c1cnn(-c2ccc(C#CC3CCCCC3)cc2)c1C	8 µg/mL (≈ 22.1 µM)

test system: Klebsiella pneumoniae; assay: Antibacterial activity against Klebsiella pneumoniae BAA-1706 clinical isolates after 18 to 20 hrs in aerobic condition by CLSI-based broth microdilution assay; assay type: functional; settings: not given

SMILES	MIC
C/C(=N\NC(=N)N)c1cnn(-c2ccc(C#CC3CCCCC3)cc2)c1C	8 µg/mL (≈ 22.1 µM)

test system: Klebsiella pneumoniae; assay: Antibacterial activity against carbapenem-resistant Klebsiella pneumoniae ATCC BAA-2146 clinical isolates after 18 to 20 hrs in aerobic condition by CLSI-based broth microdilution assay; assay type: functional; settings: not given

SMILES	MIC
C/C(=N\NC(=N)N)c1cnn(-c2ccc(C#CC3CCCCC3)cc2)c1C	8 µg/mL (≈ 22.1 µM)

test system: Salmonella enterica; assay: Antibacterial activity against Salmonella enterica NR-170 clinical isolates after 18 to 20 hrs in aerobic condition by CLSI-based broth microdilution assay; assay type: functional; settings: not given

SMILES	MIC
C/C(=N\NC(=N)N)c1cnn(-c2ccc(C#CC3CCCCC3)cc2)c1C	8 µg/mL (≈ 22.1 µM)

test system: Enterococcus faecium; assay: Ratio of MBC to MIC for vancomycin-resistant Enterococcus faecium ATCC 700221 clinical isolates; assay type: functional; settings: not given

SMILES	Ratio
C/C(=N\NC(=N)N)c1cnn(-c2ccc(C#CC3CCCCC3)cc2)c1C	<3

test system: Salmonella enteritidis; assay: Ratio of MBC to MIC for Salmonella enteritidis ATCC 14028 clinical isolates; assay type: functional, Salmonella enterica subsp. enterica serovar Enteritidis; settings: not given

SMILES	Ratio
C/C(=N\NC(=N)N)c1cnn(-c2ccc(C#CC3CCCCC3)cc2)c1C	>=1

test system: Staphylococcus aureus; assay: Bactericidal activity against methicillin-resistant Staphylococcus aureus NRS123-USA400 clinical isolates at 5 times MIC incubated over 24 hrs followed by replating on tryptic soy agar plate and further incubated for 18 to 20 hrs by time kill assay; assay type: functional, organism-based; settings: not given

SMILES	Activity
C/C(=N\NC(=N)N)c1cnn(-c2ccc(C#CC3CCCCC3)cc2)c1C	Active

test system: Streptococcus pneumoniae; assay: Antibacterial activity against methicillin-resistant Streptococcus pneumoniae ATCC 700677 clinical isolates after 18 to 20 hrs by CLSI-based broth microdilution assay; assay type: functional; settings: not given

SMILES	MIC
C/C(=N\NC(=N)N)c1cnn(-c2ccc(C#CC3CCCCC3)cc2)c1C	2 µg/mL (≈ 5.52 µM)

test system: Staphylococcus aureus; assay: Antibacterial activity against Methicillin-resistant Staphylococcus aureus NRS123-USA400 clinical isolates after 18 to 20 hrs in aerobic condition by CLSI protocol based broth microdilution assay; assay type: functional; settings: not given

SMILES	MIC
C/C(=N\NC(=N)N)c1cnn(-c2ccc(C#CC3CCCCC3)cc2)c1C	2 µg/mL (≈ 5.52 µM)

test system: Acinetobacter baumannii; assay: microbe, parasite or virus in culture; settings: ATCC BAA 1747
Description: Antibacterial activity against Acinetobacter baumannii ATCC BAA 1747 after 18 to 20 hrs in aerobic condition by CLSI-based broth microdilution assay

SMILES	MIC
C/C(=N\NC(=N)N)c1cnn(-c2ccc(C#CC3CCCCC3)cc2)c1C	4 µg/mL (≈ 11 µM)

test system: Escherichia coli; assay: Antibacterial activity against Escherichia coli ATCC 25922 clinical isolates after 18 to 20 hrs in aerobic condition by CLSI-based broth microdilution assay; assay type: functional; settings: not given

SMILES	MIC
C/C(=N\NC(=N)N)c1cnn(-c2ccc(C#CC3CCCCC3)cc2)c1C	4 µg/mL (≈ 11 µM)

test system: Acinetobacter baumannii; assay: Ratio of MBC to MIC for Acinetobacter baumannii ATCC BAA 1141 clinical isolates; assay type: functional; settings: not given

SMILES	Ratio
C/C(=N\NC(=N)N)c1cnn(-c2ccc(C#CC3CCCCC3)cc2)c1C	>=1

test system: Staphylococcus epidermidis; assay: Ratio of MBC to MIC for Staphylococcus epidermidis NRS101 clinical isolates; assay type: functional; settings: not given

SMILES	Ratio
C/C(=N\NC(=N)N)c1cnn(-c2ccc(C#CC3CCCCC3)cc2)c1C	<3

test system: Staphylococcus aureus; assay: Antibacterial activity against Methicillin-sensitive Staphylococcus aureus NRS107 clinical isolates after 18 to 20 hrs in aerobic condition by CLSI protocol based broth microdilution assay; assay type: functional; settings: not given

SMILES	MIC
C/C(=N\NC(=N)N)c1cnn(-c2ccc(C#CC3CCCCC3)cc2)c1C	2 µg/mL (≈ 5.52 µM)
